Test results as given in patent publication US8859535B2, “Hydroxy substituted isoquinolinone derivatives” (Novartis AG, priority 2011, dated 2014).

Tests used:
Type in all cases: binding
[1] = target: T1, human MDM2 protein (amino acids 2-188) (Homo sapiens, UniProt Q00987); test: p53-MDM2 TR-FRET assay, modified (p53-MDM2 Assay 2); conditions: 0.1 nM MDM2, 0.1 nM Europium labeled streptavidin; read-out: IC50 (nM) of p53-Hdm2 inhibition (TR-FRET) Assay 2
T1 construct: human MDM2 protein (amino acids 2-188); made in house
T1 sequence (Q00987 2-188): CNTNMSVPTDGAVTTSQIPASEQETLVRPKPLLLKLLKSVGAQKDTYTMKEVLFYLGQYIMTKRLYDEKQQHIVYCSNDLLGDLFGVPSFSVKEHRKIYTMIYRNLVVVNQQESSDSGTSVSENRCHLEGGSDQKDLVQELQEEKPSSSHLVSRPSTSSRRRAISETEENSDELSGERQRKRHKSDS
Procedure: Time Resolved Fluorescence Energy Transfer (TR-FRET) Assay
The inhibition of p53-MDM2 and p53-MDM4 interactions is measured by time resolved fluorescence energy transfer (TR-FRET). Fluorescence energy transfer (or Foerster resonance energy transfer) describes an energy transfer between donor and acceptor fluorescent molecules. For this assay, human MDM2 protein (amino acids 2-188) and human MDM4 protein (amino acids 2-185), tagged with a C-terminal biotin moiety, are used in combination with a Europium labeled streptavidin (Perkin Elmer, Inc., Waltham, Mass., USA) serving as the donor fluorophore. The p53 derived, Cy5 labeled peptide Cy5-TFSDLWKLL (p53 aa18-26) is the energy acceptor. Upon excitation of the donor molecule at 340 nm, binding interaction between MDM2 or MDM4 and the p53 peptide induces energy transfer and enhanced response at the acceptor emission wavelength at 665 nm. Disruption of the formation of the p53-MDM2 or p53-MDM4 complex due to an inhibitor molecule binding to the p53 binding site of MDM2 or MDM4 results in increased donor emission at 620 nm. The ratiometric FRET assay readout is calculated from the raw data of the two distinct fluorescence signals measured in time resolved mode (fluorescence 665 nm/fluorescence 620 nm×1000).
After addition of 1.25 nM MDM2-biotinylated or 2.5 nM MDM4-biotinylated (internal preparations), and 0.625 nM Europium labeled streptavidin (Perkin Elmer), the solution is pre-incubated for 15 minutes at room temperature, then 10 nM Cy5-p53 peptide (internal preparation) is added before an incubation at room temperature for 15 minutes prior to reading the plate. For measurement of samples, a Victor II microplate reader (Perkin Elmer) is used with the following settings: Excitation 340 nm, Emission Donor 620 nm and Emission Acceptor 665 nm. IC50 values are calculated by curve fitting using XLfit. If not specified, reagents are purchased from Sigma-Aldrich Chemie GmBH, Buchs, Switzerland.
This assay was used to evaluate compounds displaying inhibition of p53-MDM2 interaction and p53-MDM4 interaction at IC50s of 0.005 to 50 μM (p53-MDM2 Assay 1 and p53-MDM4 Assay 1, respectively). For selected compounds displaying IC50s between […] on MDM2, a slightly modified assay is used with the following adaptations: 0.1 nM MDM2, 0.1 nM Europium labeled streptavidin and Tecan genios Pro is used as a microplate reader for the fluorescence measurements (p53-MDM2 Assay 2).

[2] = target: T2, human MDM4 protein (amino acids 2-185) (Homo sapiens, UniProt O15151); test: p53-MDM4 TR-FRET assay (p53-MDM4 Assay 1); conditions: 2.5 nM MDM4-biotinylated, 10 nM Cy5-p53 peptide; read-out: IC50 (μM) of p53-Hdm4 inhibition (TR-FRET) Assay 1
T2 construct: human MDM4 protein (amino acids 2-185); made in house
T2 sequence (O15151 2-185): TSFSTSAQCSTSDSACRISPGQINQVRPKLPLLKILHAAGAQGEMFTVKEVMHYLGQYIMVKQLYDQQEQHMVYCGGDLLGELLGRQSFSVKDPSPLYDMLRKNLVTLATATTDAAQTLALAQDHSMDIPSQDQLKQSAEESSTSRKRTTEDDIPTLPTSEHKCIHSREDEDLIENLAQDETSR
Outline: (§1)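 Peptide displacement read as 665/620 nm TR-FRET ratio (excitation 340 nm) after 15 min room temperature with 10 nM Cy5-p53 aa18-26, following 15 min preincubation of Eu-streptavidin (0.625 nM) with biotinylated MDM4 aa 2-185 (2.5 nM) or MDM2 aa 2-188 (1.25 nM); IC50 curve-fitted. MDM2 Assay 2: MDM2 and Eu-streptavidin each 0.1 nM.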

[3] = target: T1, human MDM2 protein (amino acids 2-188); test: p53-MDM2 TR-FRET assay (p53-MDM2 Assay 1); conditions: 1.25 nM MDM2-biotinylated, 10 nM Cy5-p53 peptide; read-out: IC50 (μM) of p53-Hdm2 inhibition (TR-FRET) Assay 1
Outline: as §1

IC50 [1] [nM] | IC50 [2] [µM] | IC50 [3] [µM] | SMILES
4.43 |  |  | [2H]C([2H])([2H])Oc1cc2c(cc1OC(C)C)[C@H](c1ccc(Cl)cc1)N(c1ccc(C(C)(O)C3CCS(=O)(=O)CC3)cc1)C(=O)C2 (mixture of isomers) [Example 150, (S)-1-(4-Chloro-phenyl)-2-{4-[1-(1,1-dioxo-hexahydro-1-thiopyran-4-yl)-1-hydroxy-ethyl]-phenyl}-7-isopropoxy-6-d^3-methoxy-1,4-dihydro-2H-isoquinolin-3-one]
150 |  |  | COc1cc2c(cc1OC(C)C)[C@H](c1ccc(Cl)cc1)N(c1ccc([C@](C)(O)C3CCN(C=O)CC3)cc1)C(=O)C2 (single isomer, unassigned) [Example 124]
0.746 |  |  | COc1cc2c(cc1OC(C)C)[C@H](c1ccc(Cl)cc1)N(c1ccc([C@@](C)(O)C3CCN(C=O)CC3)cc1)C(=O)C2 (single isomer, unassigned) [Example 125]
58.6 |  |  | COc1cc2c(cc1OC(C)C)[C@H](c1ccc(Cl)cc1)N(c1ccc([C@](C)(O)C3CCN(C4COC4)CC3)cc1)C(=O)C2 (single isomer, unassigned) [Example 126]
0.935 |  |  | COc1cc2c(cc1OC(C)C)[C@H](c1ccc(Cl)cc1)N(c1ccc([C@@](C)(O)C3CCN(C4COC4)CC3)cc1)C(=O)C2 (single isomer, unassigned) [Example 127]
1.34 |  |  | COc1cc2c(cc1OC(C)C)[C@H](c1ccc(Cl)cc1)N(c1ccc([C@@](C)(O)C3CCN(C(=O)COC(C)=O)CC3)cc1)C(=O)C2 (single isomer, unassigned) [Example 128]
99.8 |  |  | COc1cc2c(cc1OC(C)C)[C@H](c1ccc(Cl)cc1)N(c1ccc([C@](C)(O)C3CCN(C(=O)COC(C)=O)CC3)cc1)C(=O)C2 (single isomer, unassigned) [Example 129]
1.42 |  |  | COc1cc2c(cc1OC(C)C)[C@H](c1ccc(Cl)cc1)N(c1ccc([C@@](C)(O)C3CCN(CCO)CC3)cc1)C(=O)C2 (single isomer, unassigned) [Example 131]
25.3 |  |  | COc1cc2c(cc1OC(C)C)[C@H](c1ccc(Cl)cc1)N(c1ccc([C@](C)(O)C3CCN(CCO)CC3)cc1)C(=O)C2 (single isomer, unassigned) [Example 132]
1.62 |  |  | COc1cc2c(cc1OC(C)C)[C@H](c1ccc(Cl)cc1)N(c1ccc([C@@](C)(O)C3CCN(C(=O)CO)CC3)cc1)C(=O)C2 (single isomer, unassigned) [Example 133]
141 |  |  | COc1cc2c(cc1OC(C)C)[C@H](c1ccc(Cl)cc1)N(c1ccc([C@](C)(O)C3CCN(C(=O)CO)CC3)cc1)C(=O)C2 (single isomer, unassigned) [Example 134]
2.72 |  |  | COc1cc2c(cc1OC(C)C)[C@H](c1ccc(Cl)cc1)N(c1ccc([C@@](C)(O)C34CCC(CC3)C4)cc1)C(=O)C2 (single isomer, unassigned) [Example 139]
305 |  |  | COc1cc2c(cc1OC(C)C)[C@H](c1ccc(Cl)cc1)N(c1ccc([C@](C)(O)C34CCC(CC3)C4)cc1)C(=O)C2 (single isomer, unassigned) [Example 140]
152 |  |  | [2H]C([2H])([2H])Oc1cc2c(cc1OC(C)C)[C@H](c1ccc(Cl)cc1)N(c1ccc([C@](C)(O)C3CCS(=O)(=O)CC3)cc1)C(=O)C2 (single isomer, unassigned) [Example 152]
 | 3.05 | 0.0086 | CC(C)Oc1cc2c(cc1OCC1COC1)CC(=O)N(c1ccc(C(C)(O)C3CCOCC3)cc1)[C@H]2c1ccc(Cl)cc1 (stereo partly drawn) [Example 147, (S)-1-(4-Chloro-phenyl)-2-{4-[1-hydroxy-1-(tetrahydro-pyran-4-yl)-ethyl]-phenyl}-7-isopropoxy-6-(oxetan-3-ylmethoxy)-1,4-dihydro-2H-isoquinolin-3-one]
 | 2.64 | 0.0067 | CNC(=O)COc1cc2c(cc1OC(C)C)[C@H](c1ccc(Cl)cc1)N(c1ccc(C(C)(O)C3CCOCC3)cc1)C(=O)C2 (stereo partly drawn) [Example 148, 2-((S)-1-(4-Chloro-phenyl)-2-{4-[1-hydroxy-1-(tetrahydro-pyran-4-yl)-ethyl]-phenyl}-7-isopropoxy-3-oxo-1,2,3,4-tetrahydro-isoquinolin-6-yloxy)-N-methyl-acetamide]
 | 5.53 | 0.0101 | CC(C)Oc1cc2c(cc1OCC(=O)N(C)C)CC(=O)N(c1ccc(C(C)(O)C3CCOCC3)cc1)[C@H]2c1ccc(Cl)cc1 (stereo partly drawn) [Example 149, 2-((S)-1-(4-Chloro-phenyl)-2-{4-[1-hydroxy-1-(tetrahydro-pyran-4-yl)-ethyl]-phenyl}-7-isopropoxy-3-oxo-1,2,3,4-tetrahydro-isoquinolin-6-yloxy)-N,N-dimethyl-acetamide]
 | 5.53 | 0.0065 | COc1cc2c(cc1OC(C)C)[C@H](c1ccc(Cl)cc1)N(c1ccc(C(C)(O)C3CC(C)(C)OC(C)(C)C3)cc1)C(=O)C2 (stereo partly shown) [Example 162]
 | 7.78 | 0.00735 | COc1cc2c(cc1OC(C)C)[C@H](c1ccc(Cl)cc1)N(c1ccc(C(C)(O)C3CCS(=O)(=O)CC3)cc1)C(=O)C2 (stereo partly drawn) [Example 166, (S)-1-(4-Chloro-phenyl)-2-{4-[1-(1,1-dioxo-hexahydro-1-thiopyran-4-yl)-1-hydroxy-ethyl]-phenyl}-7-isopropoxy-6-methoxy-1,4-dihydro-2H-isoquinolin-3-one]
 | 51.1 | 0.125 | COc1cc2c(cc1OC(C)C)[C@H](c1ccc(Cl)cc1)N(c1ccc([C@](C)(O)C3CCS(=O)(=O)CC3)cc1)C(=O)C2 [Example 167, (S)-1-(4-Chloro-phenyl)-2-{4-[(R)-1-(1,1-dioxo-hexahydro-1-thiopyran-4-yl)-1-hydroxy-ethyl]-phenyl}-7-isopropoxy-6-methoxy-1,4-dihydro-2H-isoquinolin-3-one]
 | 8.3 | 0.0096 | COc1cc2c(cc1OC(C)C)[C@H](c1ccc(Cl)cc1)N(c1ccc(C(C)(O)C3CC[S+]([O-])CC3)cc1)C(=O)C2 (stereo partly drawn) [Example 169, (S)-1-(4-Chloro-phenyl)-2-{4-[1-hydroxy-1-(1-oxo-hexahydro-1-thiopyran-4-yl)-ethyl]-phenyl}-7-isopropoxy-6-methoxy-1,4-dihydro-2H-isoquinolin-3-one]
 | 62.5 | 0.168 | COc1cc2c(cc1OC(C)C)[C@H](c1ccc(Cl)cc1)N(c1ccc([C@](C)(O)C3CC[S+]([O-])CC3)cc1)C(=O)C2 (stereo partly drawn) [Example 170, (S)-1-(4-Chloro-phenyl)-2-{4-[(R)-1-hydroxy-1-(1-oxo-hexahydro-thiopyran-4-yl)-ethyl]-phenyl}-7-isopropoxy-6-methoxy-1,4-dihydro-2H-isoquinolin-3-one]
 | 4.4 | 0.0031 | COc1cc2c(cc1OC(C)C)[C@H](c1ccc(Cl)cc1)N(c1ccc([C@@](C)(O)C3CC[S+]([O-])CC3)cc1)C(=O)C2 (stereo partly drawn) [Example 171, (S)-1-(4-Chloro-phenyl)-2-{4-[(S)-1-hydroxy-1-(1-oxo-hexahydro-1-thiopyran-4-yl)-ethyl]-phenyl}-7-isopropoxy-6-methoxy-1,4-dihydro-2H-isoquinolin-3-one]
 | 41.4 | 0.0943 | COc1cc2c(cc1OC(C)C)[C@H](c1ccc(Cl)cc1)N(c1ccc([C@](C)(O)C3CC4CCC(C3)S4(=O)=O)cc1)C(=O)C2 (stereo partly drawn) [Example 173, (S)-1-(4-Chloro-phenyl)-2-{4-[(R)-1-(8,8-dioxo-8-thia-bicyclo[3.2.1]oct-3-yl)-1-hydroxy-ethyl]-phenyl}-7-isopropoxy-6-methoxy-1,4-dihydro-2H-isoquinolin-3-one]
